{"source": "patent US20250127696A1", "about": "“COMPOSITION FOR PREVENTING OR IMPROVING SKIN-AGING CONTAINING A THYMOL ESTER-BASED COMPOUND” (AMOREPACIFIC CORPORATION, priority 2023, published 2025)", "format_in_all_cases": "cell-based, human", "key": {"melanocytes [1]": {"test_system": "melanocytes", "assay": "Observation of cell morphology after UVB-induced senescence", "conditions": "UVB 5 mJ/cm^2 twice at 24-hour intervals, then treated and incubated 2 weeks; FIG. 3", "protocol": "(§1) Melanocytes were purchased from Cascade Biologics as cells cultured in the foreskin of newborn African-American males, and cultured using Medium254 medium mixed with human melanocyte growth supplement (Life technologies).\nMelanocytes were irradiated with 5 mJ/cm^2 of UVB twice at 24-hour intervals using a 1 UVB UV irradiator (Bio-Sun), and then treated with Melasolv and incubated for 2 weeks. A photograph of the cells is taken using an optical microscope (ECLIPSE TS100 from NIKON), and the shape of the cells is examined. Referring to FIG. 3, when treated with ultraviolet (UVB) that induce cellular senescence (Chr UVB; Chronic UVB in FIG. 3), it could be confirmed that the skin cells were flattened or enlarged, as shown by three spots that were slightly larger than the others in the middle of the photograph."}, "[2]": {"test_system": "β-galactosidase in melanocytes", "assay": "beta-galactosidase assay (senescence staining) after UVB", "conditions": "UVB 5 mJ/cm^2 twice at 24-hour intervals, then treated and incubated 2 weeks; vs UVB only; FIG. 4", "protocol": "as §1\nMelanocytes were irradiated with 5 mJ/cm^2 of UVB twice at 24-hour intervals using a 1 UVB UV irradiator (Bio-Sun), and then treated with Melasolv and incubated for 2 weeks. To measure the degree of cellular senescence, a beta-galactosidase assay was performed using a beta-gal staining kit from Life technologies. A photograph was taken using an optical microscope (ECLIPSE TS100 from NIKON), and then the number of cells with stained beta-galactosidase was counted."}, "melanocytes [3]": {"test_system": "melanocytes", "assay": "Predicted transcriptome age (RNA-age) of melanocytes", "conditions": "10 ppm, 24 hours, vs untreated control; RNAAgeCalc on FPKM data, skin tissue; FIG. 2", "protocol": "as §1\nRNA was extracted from melanocytes treated with 10 ppm of Melasolv for 24 hours using TRIzol reagent (Life technologies). This RNA was used to prepare a library using the Illumina TruSeq Stranded Total RNA Library Prep kit (Illumina, San Diego, CA, USA), and then RNA-sequencing was performed using the NovaSeq 6000 platform (Illumina).\nThereafter, a model for predicting age based on approximately 16,000 gene expression values of RNA-seq data was applied to measure the RNA-age of the untreated control melanocytes (—in the graph of FIG. 2) and the RNA-age of the melanocytes treated with Melasolv. Specifically, the RNA-age used RNAAgeCalc package, which can calculate transcriptome age from RNAseq data. Among the transcriptome data, FPKM data was entered as input and skin tissue was entered as an argument for calculation. • (RNAAgeCalc pakage: https://bioconductor.org/packages/release/bioc/html/RNAAgeCalc.html, • Ren X, Kuan P F (2020). “A multi-tissue transcriptional age calculators.” PLOS ONE, 15(8),-20. doi: 10.1371/journal.pone.0237006)"}}, "data": [{"smiles": "COc1cc(/C=C/C(=O)Oc2cc(C)ccc2C(C)C)cc(OC)c1OC", "note": "[Melasolv, (5-methyl-2-propan-2-ylphenyl) (E)-3-(3,4,5-trimethoxyphenyl) prop-2-enoate]", "values": [{"measurement": "change in cell morphology (flattened or enlarged cells)", "setting": "melanocytes [1]", "value": "reduces changes in skin cells caused by UVB"}, {"measurement": "β-galactosidase (number of stained cells)", "setting": "[2]", "value": "reduced to a statistically significant degree"}, {"measurement": "decrease of RNA-age of melanocytes", "setting": "melanocytes [3]", "value": "about 4 years"}]}]}
